Experimental data reported in article PMC3351444, “Molecular Evolution of a Peptide GPCR Ligand Driven by Artificial Neural Networks” (PLoS ONE, 2012).
Read-outs that look alike come from different tables or passages of the source. Square brackets hold non-standard residues; d marks the D form. Ends that are not written are not given here. Peptide text beside a SMILES is read from it.

Experiments:
[1] = In vitro peptide stability in human serum (RP-HPLC); details: human, human serum, 25% (v/v) in RPMI
human CMKLR1 = molecular target: T1, human CMKLR1 (Homo sapiens, UniProt Q99788); assay: Ca2+ mobilization (CellLux imaging) agonist assay in HEK293A cells expressing CMKLR1 and Gα15; type: cell-based
T1 construct: host or cells: HEK293A (Invitrogen), stably expressing human Gα15
T1 sequence (Q99788 1-373): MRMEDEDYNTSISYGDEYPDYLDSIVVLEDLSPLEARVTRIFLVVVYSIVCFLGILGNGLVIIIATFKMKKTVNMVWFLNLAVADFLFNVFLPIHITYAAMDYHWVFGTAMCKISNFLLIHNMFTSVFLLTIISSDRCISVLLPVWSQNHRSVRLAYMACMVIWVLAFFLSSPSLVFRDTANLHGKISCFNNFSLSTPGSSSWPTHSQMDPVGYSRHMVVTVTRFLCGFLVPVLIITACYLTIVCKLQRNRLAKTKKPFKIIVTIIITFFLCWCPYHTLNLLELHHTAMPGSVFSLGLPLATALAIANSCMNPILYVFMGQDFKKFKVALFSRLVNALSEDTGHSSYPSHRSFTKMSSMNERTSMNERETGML
How it was run: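 HEK293A cells co-expressing CMKLR1 and Gα15 were loaded with FLUO4-AM, and peptides were added robotically in C1 buffer (HEPES pH 7.4, 2 mM CaCl2) with 0.1% BSA. Fluorescence changes were read in duplicate wells, buffer-subtracted and normalized to background. EC50 came from amplitude–concentration plots.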

[2] = Ca2+ mobilization, CMKLR1, decimal comma
[3] = Ca2+ mobilization, CMKLR1, decimal comma, NR where no EC50 is given, read-out: EC50

half-life at 50 µg/mL [1] | max response (human CMKLR1; [2]) | EC50 (human CMKLR1; [3]) | EC50 (human CMKLR1; intracellular calcium mobilization, HEK293 cells expressing CMKLR1, mean of three independent experiments ± SD, read-out: activity: EC50 ±SD) | Compound
16 min | 0,65 DF/F0 | 5830 nM |  | YFLGQFAFK-OH [compound 76]
47 min | 1,33 DF/F0 | 21 nM |  | CC(C)C[C@H](NC(=O)[C@@H](N)Cc1ccc(O)cc1)C(=O)N1CCC[C@H]1C(=O)NCC(=O)N[C@@H](CCC(N)=O)C(=O)N[C@@H](Cc1ccc(O)cc1)C(=O)N[C@H](Cc1c[nH]c2ccccc12)C(=O)N1CCC[C@H]1C(=O)N[C@H](Cc1ccccc1)C(=O)O [compound 126] (H-YLPGQY[dW]P[dF]-OH; N-terminus assumed)
24 min | 1,2 DF/F0 | 2490 nM |  | C[C@H](NC(=O)[C@H](Cc1ccccc1)NC(=O)[C@H](C)NC(=O)[C@H](Cc1ccccc1)NC(=O)[C@@H](N)CCC(N)=O)C(=O)N[C@@H](Cc1ccccc1)C(=O)N[C@@H](C)C(=O)N[C@@H](Cc1ccccc1)C(=O)N[C@H](CO)C(=O)O [compound 115] (H-QFAFAFAF[dS]-OH; N-terminus assumed)
1160 ± 41 min |  |  | 8.2 ± 3.96 nM | CC(C)C[C@H](NC(=O)[C@H](N)Cc1ccccc1)C(=O)N1CCC[C@H]1C(=O)NCC(=O)N[C@@H](CCC(N)=O)C(=O)N[C@@H](Cc1ccc(O)cc1)C(=O)N[C@@H](C)C(=O)N[C@@H](Cc1ccccc1)C(=O)N[C@H](Cc1ccccc1)C(=O)O [fLPGQYAFf] (H-[dF]LPGQYAF[dF]-OH; N-terminus assumed)
81 min | 1,56 DF/F0 | 145 nM |  | CC(C)C[C@H](NC(=O)[C@@H](N)CC(C)C)C(=O)N[C@@H](Cc1ccc(O)cc1)C(=O)N[C@H](Cc1c[nH]c2ccccc12)C(=O)N1CCC[C@H]1C(=O)N[C@@H](Cc1ccc(O)cc1)C(=O)N[C@@H](C)C(=O)N[C@@H](CCCCN)C(=O)N[C@H](CO)C(=O)O [compound 144] (H-LLY[dW]PYAK[dS]-OH; N-terminus assumed)
28 min | 1,36 DF/F0 | 207 nM |  | CC(C)C[C@H](NC(=O)[C@@H](N)Cc1ccc(O)cc1)C(=O)N1CCC[C@H]1C(=O)N[C@@H](Cc1ccc(O)cc1)C(=O)N1CCC[C@H]1C(=O)N[C@@H](Cc1ccc(O)cc1)C(=O)N1CCC[C@@H]1C(=O)N[C@@H](Cc1ccccc1)C(=O)N[C@H](Cc1ccccc1)C(=O)O [compound 147] (H-YLPYPY[dP]F[dF]-OH; N-terminus assumed)
24 min | 0,97 DF/F0 | 0.77 nM |  | CC(C)C[C@H](NC(=O)[C@@H](N)Cc1ccc(O)cc1)C(=O)N1CCC[C@H]1C(=O)NCC(=O)N[C@@H](CCC(N)=O)C(=O)N[C@@H](Cc1ccccc1)C(=O)N[C@H](Cc1ccccc1)C(=O)N[C@@H](Cc1ccccc1)C(=O)N[C@@H](CO)C(=O)O [compound 28] (H-YLPGQF[dF]FS-OH; N-terminus assumed)
49 min | 0,99 DF/F0 | 5580 nM |  | CC(C)C[C@H](NC(=O)[C@H](Cc1ccccc1)NC(=O)[C@H](CCC(N)=O)NC(=O)CNC(=O)[C@H]1CCCN1C(=O)[C@@H](CC(C)C)NC(=O)[C@@H](N)Cc1ccc(O)cc1)C(=O)N[C@@H](Cc1ccccc1)C(=O)N[C@@H](CO)C(=O)O [compound 75] (H-Y[dL][dP]GQFLFS-OH; N-terminus assumed)
2440 min | 1,75 DF/F0 | 80.6 nM |  | CC(C)C[C@H](NC(=O)[C@H](N)Cc1ccccc1)C(=O)N1CCC[C@H]1C(=O)NCC(=O)N[C@@H](CCC(N)=O)C(=O)N[C@@H](Cc1ccc(O)cc1)C(=O)N[C@@H](C)C(=O)N[C@@H](Cc1ccccc1)C(=O)N[C@H](CO)C(=O)O [compound 95] (H-[dF]LPGQYAF[dS]-OH; N-terminus assumed)
28 min | 1,06 DF/F0 | 13.5 nM |  | FLPGQYAFL-OH [compound 46]
